From patent US11135457B2, “Skincare compositions” (Reckitt Benckiser Healthcare International Limited, priority 2009, dated 2021)

Assays:
Assay type in all cases: cell-based
IL-8 = assay: In vitro EpiDerm skin model, PMA irritant: IL-8 release; settings: no PMA irritant (first IL-8 column, c6)
Procedure: (§1) The purpose of the in vitro testing was to evaluate the potential anti-inflammatory action of compositions according to the present invention.
(§2) In vitro tests were carried out as follows: • take an irritant treated EpiDerm™ skin model. Initial inflammation was measured by the cytokine release after exposure to a single dose of irritant. • apply test compositions to the irritant treated EpiDerm skin • anti-inflammatory potential was then measured by reduction in cytokine release • specifically, the levels of cytokines TNF-α, IL-6 and IL-8 were measured to give a picture of the performance of the product across the lifecycle of an acne event or related skin inflammation.
(§3) Experimental design follows standard procedures, using phorbol-12-myristate 13-acetate (PMA) as irritant. Test samples were applied by pipette as solutions to the Epiderm tissue, and each sample was tested in triplicate against positive and negative controls. Anti-inflammatory activity measured by relative decrease in cytokine release in irritant-treated tissue compared to non-irritant treated tissue.
(§4) The separate active components of an example according to the invention were tested, along with some combinations in pairs and one combination lacking the salicylic acid. Where these actives were applied, they were in the same w/w ratio as in the example composition, example 9.

EpiDerm skin model = assay: MTT viability, EpiDerm skin model
IL-6 = assay: In vitro EpiDerm skin model, PMA irritant: IL-6 release; settings: for IL-6 + PMA: + PMA irritant; for IL-6 no PMA: no PMA irritant
Procedure: as §1, §2, §3, §4

TNF-α = assay: In vitro EpiDerm skin model, PMA irritant: TNF-α release; settings: for TNFα + PMA / TNFα no PMA: EpiDerm skin model; for TNFα + PMA: + PMA irritant; for TNFα no PMA: no PMA irritant
Procedure: as §1, §2, §3, §4

Compound	IL-8 no PMA (IL-8) [pg/mL]	MTT < 95% (EpiDerm skin model) [%]	IL-6 + PMA (IL-6) [pg/mL]	IL-6 no PMA (IL-6) [pg/mL]	TNFα + PMA (TNF-α) [pg/mL]	TNFα no PMA (TNF-α) [pg/mL]	anti-inflammatory action (reduction in cytokine release) (TNF-α; irritant (PMA) treated EpiDerm skin model, cytokines TNF-α, IL-6 and IL-8 taken together)
NC(=O)c1cccnc1 [Nicotinamide (NA)]	47.54	96.8	-2.712	-4.294	40.202	-0.171	
CC(O)C(=O)[O-].[Na+] (stereo not drawn) [Sodium Lactate (SLA)]	104.549	99.1	22.6	4.909	92.434	0.882	
CC1(C)[C@@H](O[C@H]2O[C@H](C(=O)[O-])[C@@H](O)[C@H](O)[C@H]2O[C@@H]2O[C@H](C(=O)[O-])[C@@H](O)[C@H](O)[C@H]2O)CC[C@]2(C)[C@H]3C(=O)C=C4[C@@H]5C[C@@](C)(C(=O)O)CC[C@]5(C)CC[C@@]4(C)[C@]3(C)CC[C@@H]12.[K+].[K+] [Dipotassium glycyrrhizinate (GLYR)]	44.413	93.7	7.591	-1.781	78.48	-0.636	
O=C(O)c1ccccc1O [salicylic acid, reference compound]							acts inter alia as an anti-inflammatory
O=C(O)c1ccccc1O [Salicylic acid (SCA)]	72.757	103.2	6.159	-1.445	12.265	-0.068	
C[C@]12CCC(=O)C=C1CC[C@@H]1[C@@H]2[C@@H](O)C[C@@]2(C)[C@H]1CC[C@]2(O)C(=O)CO [Positive control (hydrocortisone)]			-4.358		-0.378		
